System: healthy, non-obese male subjects after an overnight fast
Assay: First study: insulinotropic effect of test drinks co-ingested with carbohydrate, plasma insulin by radio-immuno-assay
Format: in vivo, human
Conditions: 1st study
From the text: In studies presented below the effects of intact casein, several protein hydrolysates and protein hydrolysate in combination wit specific amino acids have been examined. The sodium casein used in this study is commercially available from DMV-International. Glucose and maltodextrin were obtained from AVEBE (the Netherlands) and crystalline amino acids from BUFA (the Netherlands). In the presented study the following commercially available protein hydrolysates from Quest-International have been used: Hyprol® 3301 (whey protein hydrolysate, average peptide chain length of 4.1), Hyprol® 4107 (wheat gluten protein hydrolysate, average peptide chain length of 12.2) and Hyprol® 7102 (pea protein hydrolysate, average peptide chain length of 6.4). The insulin responses in blood plasma was analysed by radio-immuno-assay (Insulin RIA 100 kit, Pharmacia, Sweden),
In three studies the efficiency of an amino acid and/or protein (hydrolysate) mixture in a carbohydrate containing drink with respect to their insulinotropic effect in human subjects was examined. […]
Eight healthy, non-obese male subjects (age 21±0.4, weight 73.9±2.2 kg, height 186±2 cm, BMI 21.4±0.7 kg·m^−2) after an overnight fast, were tested for 2 hours on 10 occasions in which different beverage compositions were ingested. […] The insulin response is expressed as area under the curve during the second hour. […]

Structure (SMILES): NC(=O)CC[C@H](N)C(=O)O [glutamine]
- Influence of addition of free glutamine on plasma glutamine concentrations: hardly influenced
- Effect on the insulin response of addition to the mixture of arginine, leucine and phenylalanine (healthy men): no effect

Reference: patent US20010031729A1, “Composition comprising carbohydrate and peptide material and its use as an energy supplement after or during physical exercise or as a metabolic nutrient for oral consumption” (priority 1999, published 2001)
